Where “and” joins values, the source holds several entries; their conditions need not be identical. Equal values may be shown once.
Tests used:
PDO9 = assay: cell viability in patient-derived CRC organoids PDO9; format: cell-based, human
Experimental: (§1) For in vitro treatment studies, organoids were mechanically dissociated and digested using TrypLE supplemented with 100 µg ml^−1 DNaseI and 10.5 µM Y-27632 dihydrochloride (Invitrogen) at 37 °C. A total of 1,000–2,000 single cells were plated per well in white 96-well plates (Greiner) in culture medium containing 10% GFR Matrigel or Cultrex BME. The treatment with doxycycline (5 µg ml^−1), pharmacological inhibitors or corresponding volumes of DMSO was started 24 h after plating. Doxycycline was obtained from Sigma-Aldrich. […] Cell viability was measured by means of CellTiter-Glo 3D or CellTiter-Glo 2.0 reagent (Promega) according to the manufacturers’ instructions and the Infinite M Plex reader (Tecan, i-control version 3.9.1 software). Results were normalized to vehicle (DMSO) or to shNC. For cell-doubling assays, the cell number was quantified at the corresponding time points using Guava EasyCyte flow cytometer (Luminex, CytoSoft v5.2 software).

PDO12 = assay: cell viability in patient-derived CRC organoids PDO12; format: cell-based, human
Experimental: as §1

PDO14 = assay: cell viability in patient-derived CRC organoids PDO14; format: cell-based, human
Experimental: as §1

HCT 116 = assay: cell viability in human CRC cell line HCT 116; format: cell-based; settings: 4 d
Experimental: (§2) To generate KAP^2D cells, KAP organoids were isolated from Matrigel, fragmented by mechanical dissociation and plated without any extracellular matrix on common cell culture dishes. Phoenix-Eco packaging cells (CRL-3214), HCT-15 (CCL-225), HCT 116 (CCL-247), COLO 205 (CCL-222), LS 174T (CL-188), RKO (CRL-2577) and HT-29 (HTB-38) were obtained from the American Type Culture Collection. The cells were cultured at 37 °C and 7% CO2 with RPMI (KAP^2D cells) or DMEM (other cell lines), supplemented with 10% FBS and penicillin–streptomycin. KAP^2D cells were authenticated using PCR (Kras locus and Trp53 locus). Phoenix-Eco packaging cells and HCT-15, HCT 116, COLO 205, LS 174T, RKO and HT-29 cells were authenticated by the provider using short tandem repeat profiling. No commonly misidentified cell lines were used. Mycoplasma contamination was excluded by a PCR-based analysis.
as §1

COLO 205 = assay: cell viability in human CRC cell line COLO 205; format: cell-based; settings: 4 d
Experimental: as §2, §1

LS 174T = assay: cell viability in human CRC cell line LS 174T; format: cell-based; settings: 4 d
Experimental: The cells were cultured at 37 °C and 7% CO2 with RPMI (KAP^2D cells) or DMEM (other cell lines), supplemented with 10% FBS and penicillin–streptomycin. […] No commonly misidentified cell lines were used. Mycoplasma contamination was excluded by a PCR-based analysis.

HT-29 = assay: cell viability in human CRC cell line HT-29; format: cell-based; settings: 0.0137 µM, ED Fig. 9h, replicates
Experimental: as §2, §1

O=C(NCCN1CCOCC1)c1ccc2c(c1)C(=O)c1ccc(Nc3ccc(F)c(NC(=O)c4ccccc4)c3)cc1CC2 [Compound 1639]
viability at 1 µM (PDO9; Homo sapiens, 96 h, PDO9, 1 µM, 4 days): 76.2% | Cell viability (%) (PDO9; PDO9, 0.5 µM, 4 d, 0.5 µM): 87.86% and 110.04% and 106.00% | Cell viability (%) (PDO9; PDO9, 1 µM, 4 days, 1 µM): 91.05% and 91.07% | Cell viability (%) (PDO12; PDO12, 0.5 µM, 4 d, 0.5 µM): 74.14% and 86.52% and 99.28% | Cell viability (%) (PDO12; PDO12, 1 µM, 4 days, 1 µM): 67.94% and 91.05% and 88.04% | viability at 0.5 µM (PDO14; Homo sapiens, 96 h, PDO14, 0.5 µM, 4 d, read-out: Cell viability (%)): 101% | viability at 1 µM (PDO14; Homo sapiens, 96 h, PDO14, 1 µM, 4 days, read-out: Cell viability (%)): 105% | Cell viability (%) (PDO14; PDO14, 0.5 µM, 4 d, 0.5 µM): 102.33% and 109.28% | Cell viability (%) (PDO14; PDO14, 1 µM, 4 days, 1 µM): 95.42% and 93.44% | HCT 116 Cell viability (%) (HCT 116; 0.0137 µM): 91.07% and 92.02% and 85.19% and 84.20% and 84.23% | HCT 116 Cell viability (%) (HCT 116; 0.0412 µM): 81.63% and 80.34% and 77.04% and 76.76% and 74.10% | HCT 116 Cell viability (%) (HCT 116; 0.1235 µM): 88.84% and 91.52% and 85.54% and 79.01% and 86.05% | HCT 116 Cell viability (%) (HCT 116; 0.3704 µM): 94.73% and 98.85% and 85.83% and 87.08% and 84.20% | HCT 116 Cell viability (%) (HCT 116; 1.1111 µM): 93.31% and 91.15% and 89.63% and 87.68% and 87.77% | HCT 116 Cell viability (%) (HCT 116; 3.3333 µM): 77.27% and 77.51% and 74.83% and 76.92% and 78.08% | HCT 116 Cell viability (%) (HCT 116; 10.0000 µM): 46.79% and 45.46% and 36.02% and 37.60% and 41.48% | viability at 0.0137 µM (HCT 116; Homo sapiens, HCT-116, 96 h, 0.0137 µM, read-out: HCT 116 Cell viability (%)): 89.2% | viability at 0.0412 µM (HCT 116; Homo sapiens, HCT-116, 96 h, 0.0412 µM, read-out: HCT 116 Cell viability (%)): 83.7% | viability at 0.1235 µM (HCT 116; Homo sapiens, HCT-116, 96 h, 0.1235 µM, read-out: HCT 116 Cell viability (%)): 89% | viability at 0.3704 µM (HCT 116; Homo sapiens, HCT-116, 96 h, 0.3704 µM, read-out: HCT 116 Cell viability (%)): 94.1% | viability at 1.1111 µM (HCT 116; Homo sapiens, HCT-116, 96 h, 1.1111 µM): 90.8% | viability at 3.3333 µM (HCT 116; Homo sapiens, HCT-116, 96 h, 3.3333 µM, read-out: HCT 116 Cell viability (%)): 74% | viability at 10 µM (HCT 116; Homo sapiens, HCT-116, 96 h, 10.0000 µM): 45.5% | COLO 205 Cell viability (%) (COLO 205; 0.0137 µM): 96.89% and 92.36% and 102.13% and 110.53% and 105.25% | COLO 205 Cell viability (%) (COLO 205; 0.0412 µM): 99.77% and 107.60% and 109.36% and 77.71% and 88.84% and 87.27% | COLO 205 Cell viability (%) (COLO 205; 0.1235 µM): 93.71% and 107.24% and 99.74% and 85.52% and 87.44% and 87.93% | COLO 205 Cell viability (%) (COLO 205; 0.3704 µM): 100.71% and 94.45% and 83.28% and 88.21% and 85.79% | COLO 205 Cell viability (%) (COLO 205; 1.1111 µM): 89.26% and 96.25% and 98.03% and 68.45% and 75.66% and 76.80% | viability at 0.0137 µM (COLO 205; Homo sapiens, COLO 205, 96 h, 0.0137 µM): 98.5% | viability at 0.3704 µM (COLO 205; Homo sapiens, COLO 205, 96 h, 0.3704 µM): 92.5% | LS 174T Cell viability (%) (LS 174T; 0.0137 µM): 96.96% and 98.13% and 93.47% and 92.87% and 103.70% | LS 174T Cell viability (%) (LS 174T; 0.0412 µM): 88.17% and 87.93% and 84.72% and 87.30% and 86.06% | LS 174T Cell viability (%) (LS 174T; 0.1235 µM): 73.32% and 74.11% and 80.93% and 80.83% and 84.53% | LS 174T Cell viability (%) (LS 174T; 0.3704 µM): 72.52% and 70.49% and 77.50% and 75.15% and 72.31% | LS 174T Cell viability (%) (LS 174T; 1.1111 µM): 73.18% and 76.23% and 79.82% and 74.44% and 73.58% | LS 174T Cell viability (%) (LS 174T; 3.3333 µM): 64.63% and 65.58% and 65.84% and 62.28% and 62.47% | LS 174T Cell viability (%) (LS 174T; 10.0000 µM): 22.96% and 24.63% and 23.18% and 23.96% and 22.77% | viability at 0.0137 µM (LS 174T; Homo sapiens, LS174T, 96 h, 0.0137 µM, read-out: LS 174T Cell viability (%)): 95% | viability at 0.0412 µM (LS 174T; Homo sapiens, LS174T, 96 h, 0.0412 µM, read-out: LS 174T Cell viability (%)): 81.8% | viability at 0.1235 µM (LS 174T; Homo sapiens, LS174T, 96 h, 0.1235 µM, read-out: LS 174T Cell viability (%)): 73.7% | viability at 0.3704 µM (LS 174T; Homo sapiens, LS174T, 96 h, 0.3704 µM, read-out: LS 174T Cell viability (%)): 74.4% | viability at 1.1111 µM (LS 174T; Homo sapiens, LS174T, 96 h, 1.1111 µM, read-out: LS 174T Cell viability (%)): 77.1% | viability at 3.3333 µM (LS 174T; Homo sapiens, LS174T, 96 h, 3.3333 µM, read-out: LS 174T Cell viability (%)): 68.9% | viability at 10 µM (LS 174T; Homo sapiens, LS174T, 96 h, 10.0000 µM, read-out: LS 174T Cell viability (%)): 24.4% | HT-29 Cell viability (%) (HT-29; Repetition): 102.28% and 94.62% | HT-29 Cell viability (%) (HT-29; first experiment): 94.47% and 95.05%

Source: paper PMC11864979, “First-in-class ultralong-target-residence-time p38α inhibitors as a mitosis-targeted therapy for colorectal cancer” (Nature Cancer, 2025)
